Patent US20090312250A1 (POSTECH ACADEMY-INDUSTRY FOUNDATION, priority 2006, published 2009)

Legend:
[1] = test system: MIN6 cells; test: [Ca2+]i measurement in MIN6 cells (Fluo-3 AM, confocal microscope); assay type: cell-based, mouse
Protocol: Changes in intracellular Ca2+ levels were monitored using a Ca2+-sensitive dye under a confocal microscope. Cells were loaded with […] Fluo-3 AM for 40 min at room temperature. After washing with Krebs-Ringer bicarbonate (KRB; 129 mM NaCl, 5 mM NaHCO3, 4.8 mM KCl, 1.2 mM KH2PO4, 1.0 mM CaCl2, 1.2 mM MgSO4, 2.7 mM glucose, and 10 mM HEPES, pH 7.4) buffer, the cells were further incubated for 15 min in the absence of Fluo-3 AM to de-esterify the dye. To exclude the possible effects of dye loading, the present inventors normalized levels with saponin at the end of the experiments. To normalize, the present inventors measured the residual fluorescence (Fo) at the end of the experiment, and subtracted that from the fluorescence under experimental conditions (F). Excitation of Fluo-3 AM was performed at 488-nm by an argon laser, and the emission range was 515-nm. Images were captured on an inverted confocal microscope (Zeiss LSM 510 Meta, Oberkochen, Germany) with a 20× objective lens. The MIN6 cells were plated onto glass dishes or 24-well plates and grown for 24 h. The cells were washed twice with KRB supplemented with 0.2% BSA, and then incubated for 60 min at 37° C. in the KRB solution. In FIG. 2A, at the end of incubation, the solutions were replaced with fresh KRB containing Fluo-3 AM dissolved (1 mg/ml) in DMSO, and incubated for 1 h. […] Images were captured on an inverted confocal microscope with a 20× objective lens. To normalize, the present inventors measured the residual fluorescence (Fo) at the end of the experiment, and subtracted that from the fluorescence under experimental conditions (F). The data shown are the mean±S.E., n=7.

[2] = test system: C57BLKSJ-db/db mice; test: Plasma insulin levels in obese db/db mice after intravenous injection; assay type: in vivo, mouse; conditions: EGF 50 μg/kg intravenous, 10 min after injection
Protocol: (§1) Measurement of Plasma Glucose and Plasma Insulin Levels: 7- to 8-week-old male ICR mice were purchased from Hyochang Science (Seoul, Korea). C57BLKSJ-db/db mice were purchased from SLC (Japan). […] Concentrations of plasma glucose were measured by the glucose oxidase method with a portable glucose meter (Gluco-Dr, Korea). Plasma was separated by centrifugation and the plasma insulin assay was performed using a RIA kit. Animal care was conducted in accordance with our institution's guidelines.
Plasma insulin levels before and 10 min after injection were compared. […] All animals had free access to water. Animal care was conducted in accordance with our institution's guidelines.

[3] = test system: MIN6 cells; test: Insulin secretion assay in MIN6 cells; assay type: cell-based, mouse; conditions: for effect on EGF-induced insulin secretion: pre-treatment, then 15 nM EGF for 1 min, butanols 0.4%, 10 min
Protocol: Cell Culture The mouse insulin-producing cells MIN6m9 provided by Dr. Susumu Seino (Division of Cellular and Molecular Medicine, Kobe University Graduate School of Medicine, Kobe, Japan) were used between passages 19 and 25 and cultured in DMEM containing 25 mM glucose, 10 mM HEPES, 10% (v/v) fetal calf serum, 50 IU/ml penicillin, and 50 μg/ml streptomycin at 37° C. in a humidified CO2-controlled (5%) incubator. MIN6 cells were transfected using LipofectAMINE, as described previously (Kim et al., J Immunol 163:5462-5470, 1999) Transfection efficiency is about 30-40% by using LipofectAMINE.
(§2) Insulin Secretion Assay: Batches of 10-15 isolated islets or 1×10^6 cells/well grown in 12- or 24-well plates were washed twice with KRB supplemented with 0.2% bovine serum albumin (BSA), and then incubated for 60 min at 37° C. in the KRB solution. We used same number of islets in a same set of experiment. At the end of incubation, the solutions were replaced with fresh KRB containing test reagents and incubated for the designated time. The incubation medium was sampled and centrifuged to remove cells, and the supernatant was assayed for insulin with a radioimmunoassay (RIA) kit (Linco, St. Louis, Mo.).
The MIN6 cells were plated onto 24-well plates and grown for 24 h. The cells were washed twice with KRB supplemented with 0.2% BSA, and then incubated for 60 min at 37° C. in the KRB solution.
The incubation medium was sampled and centrifuged to remove cells, and the supernatant was assayed for insulin levels. The data shown are the mean±S.D. from two independent assays by duplicate. *, P<0.05 compared with not treated (NT) cells.
The incubation medium was sampled and centrifuged to remove cells, and the supernatant was assayed for insulin levels. The data shown are the mean±S.D. from two independent assays by duplicate. *, P<0.05 compared with not treated cells.
The incubation medium was sampled and centrifuged to remove cells, and the supernatant was assayed for insulin levels. The data shown are the mean±S.D. from two independent assays by duplicate. * or **, P<0.05 compared with 2.7 or 11 mM glucose-treated cells.
The incubation medium was sampled and centrifuged to remove cells, and the supernatant was assayed for insulin levels.
In FIG. 3B, the MIN6 cells were plated onto 24-well plates and grown for 24 h. The cells were washed twice with KRB supplemented with 0.2% BSA, and then incubated for 60 min at 37° C. in the KRB solution. […] The incubation medium was sampled and centrifuged to remove cells, and the supernatant was assayed for insulin levels.

[4] = test system: RINm5F; test: Insulin release in RINm5F cell line (data not shown); assay type: cell-based
[5] = test system: C57BLKSJ-db/db mice; test: Plasma glucose levels in obese db/db mice after intravenous injection; assay type: in vivo, mouse; conditions: EGF 50 μg/kg intravenous
Protocol: as §1

[6] = test system: PLD; test: PLD activity assay in MIN6 cells (PBt formation); assay type: cell-based, mouse; conditions: for effect on EGF-induced PLD activity: 30 min pre-incubation, then 15 nM EGF for 1 min
Protocol: PLD Activity Assay in Cells: Cells grown in 6-well plates were washed twice with KRB, and then labeled with [3H]myristic acid for 4 h at 37° C. in the KRB solution. PLD activity was assayed by measuring the formation of phosphatidylbutanol (PBt) (Kim J H et al., J Immunol 163:5462-5470, 1999). The intensities of PBt spots in the presence of 0.4% 1-butanol were measured, and PLD activity was obtained by subtracting the corresponding intensities of spots obtained in the absence of 1-butanol.
In FIG. 3A, the MIN6 cells were plated onto 6-well plates and grown for 24 h. The cells were washed twice with KRB, and then incubated for 4 h at 37° C. in the KRB solution in the presence of [^3H]myristic acid. […] The data shown are the mean±S.D. from two independent assays by duplicate.
In FIG. 4A, the MIN6 cells were plated onto 6-well plates and grown for 24 h. The cells were washed twice with KRB, and then incubated for 4 h at 37° C. in the KRB solution in the presence of [^3H]myristic acid. […] The intensities of PBt spots after 1 min accumulation in the presence of 1-butanol were measured, and results were obtained by subtracting the corresponding intensities of spots obtained in the absence of 1-butanol. The data shown are the mean±S.D. from two independent assays by duplicate. *, P<0.05 compared with EGF-treated cells.

[7] = test system: ICR mice; test: Plasma insulin levels in ICR mice after intravenous injection; assay type: in vivo, mouse; conditions: glucose 0.5 g/kg
Protocol: as §1

[8] = test system: mouse pancreatic islets; test: Insulin secretion assay in mouse pancreatic islets; assay type: cell-based; conditions: 1 min treatment
Protocol: as §2
To prepare mouse pancreatic islets, pancreatic islets were isolated from 7- to 8-week-old male BALB/c mice (Hyochang Science, Korea), as described previously (Jonas J C, et al., Diabetes 47:1266-1273, 1998). Isolated islets were transferred onto a 12 well plate, with 10-15 islets per well. We used same number of islets in a same set of experiment. The islets were maintained for up to 2 days in RPMI1640 medium containing 5 mM glucose and 10% fetal calf serum, and supplemented with 100 µg/ml streptomycin and 100 U/ml penicillin.
The mouse pancreatic islets were plated onto 12-well plates and grown for 24 h. The islets were washed twice with KRB supplemented with 0.2% BSA, and then incubated for 60 min at 37° C. in the KRB solution. […]

Epidermal growth factor [EGF]
extracellular Ca2+ influx ([1]; MIN6 cells, 15 nM EGF): stimulated extracellular Ca2+ influx | plasma insulin levels [2]: increased plasma insulin levels | insulin levels at basal concentration of glucose ([3]; 2.7 mM glucose, 15 or 30 nM EGF, 5 min): increased insulin levels | glucose-induced insulin release at high glucose levels ([3]; 11 mM glucose, 15 or 30 nM EGF, 5 min): additively increased glucose-induced insulin release | effective time of EGF treatment for insulin secretion ([3]; MIN6 cells, 15 nM EGF): 1 to 2 min | kinetics of stimulation of insulin secretion ([3]; MIN6 cells, 15 nM EGF compared with 11 mM glucose): kinetics more rapid than glucose | effective concentration of EGF for insulin secretion ([3]; MIN6 cells, 1 min incubation): 1.5 to 15 nM | insulin secretion ([3]; MIN6 cells, 1 min treatment): significantly increased insulin secretion | insulin release [4]: could stimulate insulin release | plasma glucose [5]: reduced plasma glucose | time to PLD activation by EGF stimulation ([6]; 15 nM EGF): ≤ 2 min | plasma insulin levels [7]: increased plasma insulin levels | insulin secretion ([8]; 15 nM EGF): rapidly increased insulin secretion | specificity of the insulin secretion effect among growth factors ([8]; data not shown): specific among various growth factors

O=C[C@H](O)[C@@H](O)[C@H](O)[C@H](O)CO [glucose, reference compound]
time required for Ca2+ influx ([1]; data not shown): 3 to 4 min | plasma insulin levels [7]: increased plasma insulin levels

CCCCO [1-butanol, reference compound]
effect on EGF-induced insulin secretion ([3]; MIN6 cells): inhibited

CC(=O)OCOC(=O)CN(CC(=O)OCOC(C)=O)c1ccccc1OCCOc1ccccc1N(CC(=O)OCOC(C)=O)CC(=O)OCOC(C)=O [BAPTA/AM, 1,2-Bis(2-aminophenoxy)ethane-N,N,N′,N′-tetraacetic acid tetrakis (acet-oxymethyl ester)]
effect on EGF-induced PLD activity [6]: inhibited most of the PLD activity

O=C(O)CN(CCOCCOCCN(CC(=O)O)CC(=O)O)CC(=O)O [EGTA]
effect on EGF-stimulated extracellular Ca2+ influx ([1]; 30 min pre-incubation, then 15 nM EGF): reduced | effect on EGF-induced PLD activity [6]: inhibited most of the PLD activity

CC(C)(C)O [t-butanol, reference compound]
effect on EGF-induced insulin secretion ([3]; MIN6 cells): but not by t-butanol treatment
